Values quoted from earlier work in patent US9949942B2, “Sustained release delivery of active agents to treat glaucoma and ocular hypertension” (Mati Therapeutics Inc., priority 0208, dated 2018).

Columns and labels:
[1] = man; after topical administration
[2] = not given; remark: listed apart in the source

## CC(C)OC(=O)CCC/C=C\C[C@@H]1[C@@H](CC[C@@H](O)CCc2ccccc2)[C@H](O)C[C@@H]1O [Latanoprost, isopropyl-(Z)-7[(1R,2R,3R,5S)3,5-dihydroxy-2-[(3R)-3-hydroxy-5-phenylpentyl]cyclopentyl]-5-heptenoate]
acetone, ethanol, ethyl acetate, isopropanol, methanol, octanol
  solubility in acetone, ethanol, ethyl acetate, isopropanol, methanol and octanol: freely soluble
acetonitrile
  solubility in acetonitrile: very soluble
water
  solubility in water: practically insoluble
[1]
  time to peak concentration in the aqueous humor: about two
[2]; clinical trials
  frequency of retinal artery embolus, retinal detachment, vitreous hemorrhage from diabetic retinopathy: rarely reported
  rate of upper respiratory tract infection/cold/flu (most common systemic adverse events): approximately 4%
  subjects requiring discontinuation of therapy because of intolerance to conjunctival hyperemia: Less than 1%
[2]; conjunctivitis, diplopia, discharge from the eye
  ocular adverse events: subjects affected: Less than 1%
